System: 616215-338-R-J1-PDC tumor spheroids, viability
Test: Anticancer human tumor 616215-338-R-J1-PDC patient-derived colon adenocarcinoma cell line growth inhibition [GQUAD]
Settings: spheroids with HUVEC and MSC; for IC50: curve of first compound; for viability, T/C: stronger effect = lower value; active means viability on the fitted dose curve at most 10% of control; inactive means the rest
Method in brief: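 Tumor cells were grown as complex spheroids with HUVEC endothelial cells and mesenchymal stem cells as stroma. G-quadruplex stabilizers were combined with targeted agents over half-log dilutions from near the clinical Cmax, or from 10 microM.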
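Further: spheroids exposed to agents for 7 days before readout.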
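Wherever viability, T/C is given: percent viability relative to DMSO vehicle control wells taken as 100%.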

COc1ncnc(C2CC2)c1-c1ncc2cnn(Cc3ccc(-c4nc(C(F)(F)F)cn4C(C)C)cc3)c2n1 + CN(C)c1ccc(Nc2c3ccc(NC(=O)CCN4CCCC4)cc3nc3cc(NC(=O)CCN4CCCC4)ccc23)cc1
inactive: viability, T/C (second compound 0.0316 µM, first compound 0.0316 µM) 114% | viability, T/C (second compound 0.0316 µM, first compound 0.1 µM) 101% | viability, T/C (second compound 0.0316 µM, first compound 0.316 µM) 105% | viability, T/C (second compound 0.0316 µM, first compound 1 µM) 96.3% | viability, T/C (second compound 0.0316 µM, first compound 3.16 µM) 109% | viability, T/C (second compound 0.0316 µM, first compound 10 µM) 97.5% | viability, T/C (second compound 0.1 µM, first compound 0.0316 µM) 102% | viability, T/C (second compound 0.1 µM, first compound 0.1 µM) 96.1% | viability, T/C (second compound 0.1 µM, first compound 0.316 µM) 100% | viability, T/C (second compound 0.1 µM, first compound 1 µM) 101% | viability, T/C (second compound 0.1 µM, first compound 3.16 µM) 114% | viability, T/C (second compound 0.1 µM, first compound 10 µM) 90.2% | viability, T/C (second compound 0.316 µM, first compound 0.0316 µM) 106% | viability, T/C (second compound 0.316 µM, first compound 0.1 µM) 95.3% | viability, T/C (second compound 0.316 µM, first compound 0.316 µM) 96.9% | viability, T/C (second compound 0.316 µM, first compound 1 µM) 104% | viability, T/C (second compound 0.316 µM, first compound 3.16 µM) 101% | viability, T/C (second compound 0.316 µM, first compound 10 µM) 93.7% | viability, T/C (second compound 1 µM, first compound 0.0316 µM) 101% | viability, T/C (second compound 1 µM, first compound 0.1 µM) 114% | viability, T/C (second compound 1 µM, first compound 0.316 µM) 105% | viability, T/C (second compound 1 µM, first compound 1 µM) 101% | viability, T/C (second compound 1 µM, first compound 3.16 µM) 101% | viability, T/C (second compound 1 µM, first compound 10 µM) 92.1% | viability, T/C (second compound 3.16 µM, first compound 0.0316 µM) 96.4% | viability, T/C (second compound 3.16 µM, first compound 0.1 µM) 91.2% | viability, T/C (second compound 3.16 µM, first compound 0.316 µM) 91.4% | viability, T/C (second compound 3.16 µM, first compound 1 µM) 105% | viability, T/C (second compound 3.16 µM, first compound 3.16 µM) 93.2% | viability, T/C (second compound 3.16 µM, first compound 10 µM) 97.7% | viability, T/C (second compound 10 µM, first compound 0.0316 µM) 91.7% | viability, T/C (second compound 10 µM, first compound 0.1 µM) 85.3% | viability, T/C (second compound 10 µM, first compound 0.316 µM) 97.3% | viability, T/C (second compound 10 µM, first compound 1 µM) 90.3% | viability, T/C (second compound 10 µM, first compound 3.16 µM) 86.2% | viability, T/C (second compound 10 µM, first compound 10 µM) 47.8%
9.35 µM: IC50 (second compound 10 µM)
> 10 µM: IC50 (second compound 0.0316 µM) | IC50 (second compound 0.1 µM) | IC50 (second compound 0.316 µM) | IC50 (second compound 1 µM) | IC50 (second compound 3.16 µM)

— PubChem BioAssay AID2060493 (Molecular Pharmacology Branch, DTP, NCI, 2025)
